Where a name gives a salt, the structure may show the parent alone.
Biological target: T1, recombinant human GPR52 (Homo sapiens, UniProt Q9Y2T5)
T1 construct: expressed in transfected cells
Test: TR-FRET cAMP assay (LANCE Ultra cAMP Kit), GPR52 activity
Type: cell-based
Conditions: Flp-In-CHO cells stably expressing recombinant human GPR52; cAMP production, normalized to the positive control
Protocol: TR-FRET cAMP assays were performed using commercially available assay kits (LANCE™ Ultra cAMP Kit). Controls and compounds were solubilized in DMSO using ½ log dilution to generate duplicate 10-point dose response curves in 384-well polypropylene compound plates. Sixty nanoliters of the diluted compounds were transferred into 384-well NBS assay plates and further diluted to 1× with the addition of 2000 cells per well. Flp-In™—CHO cells that stably express recombinant human GPR52.
Cells were harvested with cell stripper and resuspended in Stimulation Buffer (5 mM HEPES, 0.1% bovine serum albumin (BSA), 0.5 mM IBMX, pH 7.4). After thirty minutes incubation at room temperature, detection reagents were added to each well. Plates were then incubated for 30 minutes at room temperature. The LANCE™ Ultra cAMP assay uses time-resolved fluorescence resonance energy transfer (TR-FRET) to detect cAMVP production; this signal was quantified using a Pherastar multi-mode plate reader.
Dose-response curves were generated from the fluorescence counts normalized to the positive control. E EC50 values were obtained using a nonlinear regression curve-fitting program.

T1 sequence (Q9Y2T5 whole entry): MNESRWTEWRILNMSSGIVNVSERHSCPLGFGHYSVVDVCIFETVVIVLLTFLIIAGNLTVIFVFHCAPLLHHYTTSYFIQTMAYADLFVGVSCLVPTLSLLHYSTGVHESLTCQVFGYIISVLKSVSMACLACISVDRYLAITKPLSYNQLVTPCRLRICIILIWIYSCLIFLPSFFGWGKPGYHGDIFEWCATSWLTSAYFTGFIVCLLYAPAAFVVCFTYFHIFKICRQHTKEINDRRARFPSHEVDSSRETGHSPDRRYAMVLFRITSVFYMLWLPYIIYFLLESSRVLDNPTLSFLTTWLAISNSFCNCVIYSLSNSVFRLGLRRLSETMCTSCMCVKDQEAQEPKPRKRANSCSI

Row | EC50 [µM] | SMILES
1 | 0.101 to 1 | Cc1cc(-c2cc(COc3ccc4c(c3)OCC4)ccn2)ccc1C(N)=O [Example 63, 4-{4-[(2,3-dihydro-1-benzofuran-6-yloxy)methyl]pyridin-2-yl}-2-methylbenzamide]
2 | < 0.025 | Cc1cc(-c2cc(COc3ccc4c(c3)CCO4)ccn2)ccc1C(N)=O [Example 64, 4-{4-[(2,3-dihydro-1-benzofuran-5-yloxy)methyl]pyridin-2-yl}-2-methylbenzamide]
3 | < 0.025 | Cc1cc(-c2cc(COc3ccc(C(F)(F)F)c(F)c3)ccn2)ccc1C(N)=O [Example 65, 4-{4-[3-fluoro-4-(trifluoromethyl)phenoxymethyl]pyridin-2-yl}-2-methylbenzamide]
4 | 0.025 to 0.1 | Cc1cc(-c2cc(COc3cc(C(F)(F)F)nn3C)ccn2)ccc1C(N)=O [Example 66, 4-[4-({[1-methyl-3-(trifluoromethyl)-1H-pyrazol-5-yl]oxy}methyl)pyridin-2-yl]2-methylbenzamide]
5 | < 0.025 | Cc1cc(-c2cc(COc3cccc(C(F)F)c3)ccn2)ccc1C(N)=O [Example 67, 4-{4-[3-(difluoromethyl)phenoxymethyl]pyridin-2-yl}-2-methylbenzamide]
6 | 0.025 to 0.1 | Cc1cc(-c2cc(COc3ccc(C(C)(C)O)cc3)ccn2)ccc1C(N)=O [Example 69, 4-{4-[4-(2-hydroxypropan-2-yl)phenoxymethyl]pyridin-2-yl}-2-methylbenzamide]
7 | < 0.025 | Cc1cc(-c2cc(COc3cc(F)cc(C4CC4)c3)ccn2)ccc1C(N)=O [Example 70, 4-[4-(3-cyclopropyl-5-fluorophenoxymethyl)pyridin-2-yl]-2-methylbenzamide]
8 | < 0.025 | Cc1cc(-c2cc(COc3ccc(C4CC4)c(F)c3)ccn2)ccc1C(N)=O [Example 71, 4-[4-(4-cyclopropyl-3-fluorophenoxymethyl)pyridin-2-yl]-2-methylbenzamide]
9 | 0.101 to 1 | Cc1cc(-c2cc(COc3ccc4nn(C)cc4c3)ccn2)ccc1C(N)=O [Example 72, 4-(4-{[(2-methyl-2H-indazol-5-yl)oxy]methyl}pyridin-2-yl)-2-methyl benzamide]
10 | 0.101 to 1 | Cc1cc(-c2cc(COc3cccc(CC#N)c3)ccn2)ccc1C(N)=O [Example 73, 4-{4-[3-(cyanomethyl)phenoxymethyl]pyridin-2-yl}-2-methylbenzamide]
11 | 0.101 to 1 | COc1cncc(OCc2ccnc(-c3ccc(C(N)=O)c(C)c3)c2)c1 [Example 74, 4-(4-{[(5-methoxypyridin-3-yl)oxy]methyl}pyridin-2-yl)-2-methylbenzamide]
12 | 0.101 to 1 | Cc1cc(-c2cc(COc3cncc(C#N)c3)ccn2)ccc1C(N)=O [Example 75, 4-(4-{[(5-cyanopyridin-3-yl)oxy]methyl}pyridin-2-yl)-2-methylbenzamide]
13 | < 0.025 | NC(=O)c1ccc(-c2cc(COc3ccc(C(F)(F)F)cc3)ccn2)cc1Cl [Example 76, 4-{4-[4-(trifluoromethyl)phenoxymethyl]pyridin-2-yl}2-chlorobenzamide]
14 | 0.025 to 0.1 | N#Cc1ccc(OCc2ccnc(-c3ccc(C(N)=O)c(Cl)c3)c2)cc1F [Example 77, 4-[4-(4-cyano-3-fluorophenoxymethyl)pyridin-2-yl]-2-chlorobenzamide]
15 | 0.025 to 0.1 | NC(=O)c1ccc(-c2cc(COc3ccc(C(F)(F)F)cc3)ccn2)cc1C(F)(F)F [Example 78, 4-{4-[4-(trifluoromethyl)phenoxymethyl]pyridin-2-yl}-2-(trifluoromethyl)benzamide]
16 | 0.101 to 1 | Cc1cc(-c2cc(COc3ccc(C#N)c(F)c3)ccn2)ccc1C(=O)NCCO [Example 79, 4-[4-(4-cyano-3-fluorophenoxymethyl)pyridin-2-yl]-N-(2-hydroxyethyl)-2-methylbenzamide]
17 | < 0.025 | Cc1cc(-c2cc(COc3ccc(C#N)c(F)c3)ccn2)ccc1C(=O)NCCN(C)C [Example 80, 4-[4-(4-cyano-3-fluorophenoxymethyl)pyridin-2-yl]-N-[2-(dimethylamino)ethyl]-2-methylbenzamide]
18 | < 0.025 | Cc1cc(-c2ccnc(COc3ccc(C(F)(F)F)cc3)c2)ccc1C(N)=O [Example 81, 4-{2-[4-(trifluoromethyl)phenoxymethyl]pyridin-4-yl}-2-methylbenzamide hydrochloride]
19 | 0.025 to 0.1 | Cc1cc(-c2ccnc(COc3ccc(C#N)c(F)c3)c2)ccc1C(N)=O [Example 82, 4-[2-(4-cyano-3-fluorophenoxymethyl)pyridin-4-yl]-2-methylbenzamide]
20 | 0.101 to 1 | Cc1cc(-c2ccnc(COc3cc(F)c(F)c(F)c3)c2)ccc1C(N)=O [Example 83, 4-[2-(3,4,5-trifluorophenoxymethyl)pyridin-4-yl]-2-methylbenzamide]
21 | 0.101 to 1 | Cc1cc(-c2ccnc(COc3ccc(C#N)c(F)c3F)c2)ccc1C(N)=O [Example 84, 4-[2-(4-cyano-2,3-difluorophenoxymethyl)pyridin-4-yl]-2-methylbenzamide]

Row | EC50 [µM] | SMILES
22 | 0.101 to 1 | Cc1cc(-c2ccnc(COc3cc(F)cc(F)c3)c2)ccc1C(N)=O [Example 85, 4-[2-(3,5-difluorophenoxymethyl)pyridin-4-yl]-2-methylbenzamide]
23 | < 0.025 | CC(=O)c1ccc(OCc2cc(-c3ccc(C(N)=O)c(C)c3)ccn2)cc1 [Example 86, 4-[2-(4-acetylphenoxymethyl)pyridin-4-yl]-2-methylbenzamide hydrochloride]
24 | 0.101 to 1 | Cc1cc(-c2ccnc(COc3ccc4c(cnn4C)c3)c2)ccc1C(N)=O [Example 87, 4-(2-{[(1-methyl-1H-indazol-5-yl)oxy]methyl}pyridin-4-yl)-2-methyl-benzamide]
25 | < 0.025 | Cc1cc(-c2ccnc(COc3ccc4c(c3)OCC4)c2)ccc1C(N)=O [Example 88, 4-{2-[(2,3-dihydro-1-benzofuran-6-yloxy)methyl]pyridin-4-yl}-2-methylbenzamide]
26 | 0.025 to 0.1 | Cc1ccc(OCc2cncc(-c3ccc(C(N)=O)c(C)c3)c2)cc1F [Example 89, 4-[5-(3-fluoro-4-methylphenoxymethyl)pyridin-3-yl]-2-methylbenzamide]
27 | 0.025 to 0.1 | Cc1cc(-c2cncc(COc3ccc(C(F)(F)F)cc3)c2)ccc1C(N)=O [Example 90, 4-{5-[4-(trifluoromethyl)phenoxymethyl]pyridin-3-yl}-2-methylbenzamide]
28 | > 1 | Cc1cc(-c2cncc(COc3ccc(C#N)c(F)c3)c2)ccc1C(N)=O [Example 91, 4-[5-(4-cyano-3-fluorophenoxymethyl)pyridin-3-yl]-2-methylbenzamide]
29 | > 1 | Cc1cc(-c2cncc(COc3cc(F)cc(C#N)c3)c2)ccc1C(N)=O [Example 92, 4-[5-(3-cyano-5-fluorophenoxymethyl)pyridin-3-yl]-2-methylbenzamide]
30 | 0.101 to 1 | Cc1cc(-c2cncc(COc3cc(F)cc(F)c3)c2)ccc1C(N)=O [Example 93, 4-[5-(3,5-difluorophenoxymethyl)pyridin-3-yl]-2-methylbenzamide]
31 | 0.101 to 1 | COc1cc(OCc2cncc(-c3ccc(C(N)=O)c(C)c3)c2)ccc1C#N [Example 94, 4-[5-(4-cyano-3-methoxyphenoxymethyl)pyridin-3-yl]-2-methylbenzamide]
32 | > 1 | Cc1cc(-c2cncc(COc3ccc4cnn(C)c4c3)c2)ccc1C(N)=O [Example 95, 4-(5-{[(1-methyl-1H-indazol-6-yl)oxy]methyl}pyridin-3-yl)-2-methylbenzamide]
33 | > 1 | COc1ccc(OCc2cncc(-c3ccc(C(N)=O)c(C)c3)c2)cc1OC [Example 96, 4-[5-(3,4-dimethoxyphenoxymethyl)pyridin-3-yl]-2-methylbenzamide]
34 | > 1 | Cc1cc(-c2cncc(COc3ccc(F)cc3)c2)ccc1C(N)=O [Example 97, 4-[5-(4-fluorophenoxymethyl)pyridin-3-yl]-2-methylbenzamide]
35 | 0.025 to 0.1 | COc1ccc(OCc2cncc(-c3ccc(C(N)=O)c(C)c3)c2)cc1 [Example 98, 4-[5-(4-methoxyphenoxymethyl)pyridin-3-yl]-2-methylbenzamide]
36 | > 1 | COc1ccc(OCc2cncc(-c3ccc(C(N)=O)c(C)c3)c2)c(Cl)c1 [Example 99, 4-[5-(2-chloro-4-methoxyphenoxymethyl)pyridin-3-yl]-2-methylbenzamide]
37 | 0.101 to 1 | Cc1cc(-c2cncc(COc3cc(F)c(F)c(F)c3)c2)ccc1C(N)=O [Example 100, 4-[5-(3,4,5-trifluorophenoxymethyl)pyridin-3-yl]2-methylbenzamide]
38 | 0.101 to 1 | COc1cc(OCc2cncc(-c3ccc(C(N)=O)c(C)c3)c2)ccc1C(F)(F)F [Example 101, 4-{5-[3-methoxy-4-(trifluoromethyl)phenoxymethyl]pyridin-3-yl}-2-methylbenzamide]
39 | > 1 | Cc1cc(-c2cccc(COc3cccc(C(F)(F)F)c3)n2)ccc1C(N)=O [Example 102, 4-{6-[3-(trifluoromethyl)phenoxymethyl]pyridin-2-yl}-2-methylbenzamide]
40 | 0.101 to 1 | Cc1cc(-c2ccnc(COc3ccc(C#N)c(F)c3)n2)ccc1C(N)=O [Example 103, 4-[2-(4-cyano-3-fluorophenoxymethyl)pyrimidin-4-yl]-2-methylbenzamide]
41 | 0.101 to 1 | Cc1cc(-c2cc(COC3CCCCC3)ccn2)ccc1C(N)=O [Example 104, 4-{4-[(cyclohexyloxy)methyl]pyridin-2-yl}-2-methylbenzamide]
